Reference: US4268630A, “Microbiological production of ketones from C3 -C6 alkanes” (priority 1979, dated 1981)
Where two headings read alike, the source gives them in different places.

Key:
[1] = system: cell-free secondary alcohol dehydrogenase (SADH) system; assay: Cofactor requirement of cell-free soluble extracts oxidizing 2-butanol; format: biochemical
Description: To prepare the cell-free secondary alcohol dehydrogenase (SADH) system, the washed cells were disrupted with a Wave Energy Ultrasonic Oscillator, Model W201 (Wave Energy System, Inc., Newtown, Pa.) and centrifuged at 20,000× g. for 30 minutes. […] The enzyme activity was measured with a fluorescence spectrophotometer (Perkin Elmer, Model MPF 44A) by following the formation of reduced NAD (EX 340 nm, Em 460 nm). The formation of reduced NAD was also followed with an absorption spectrophotometer at 340 nm. The assay system (3 ml.) contained: potassium phosphate buffer pH 7.0; 150 μmol.; NAD 1 μmol.; a given amount of enzyme preparation; and secondary alcohol 10 μmol. The reaction was started by the addition of substrate. One unit of enzyme activity represents the reduction of one μmole NAD per minute. Protein concentrations were determined by the Lowry method (J. Biol. Chem., 193: 255-275 (1951)).

[2] = system: secondary alcohol dehydrogenase; assay: Activity of purified yeast-derived secondary alcohol dehydrogenase; format: biochemical, Pichia sp. NRRL Y-11,328; conditions: purified enzyme
[3] = system: cell-free extracts of strain ATCC 21439; conditions: fluorescence spectrophotometry
Description: The reaction mixtures 3 ml (1.0 mg protein) were incubated at 30°
C. for 10 min. (exp. 1) and for 20 min. (exp. 2) in the presence of 1.0
^(a) Determined gas chromatographically.
^(b) Determined fluorescence spectrophotometrically. Endogenous
consumption of NAD was corrected.

[4] = system: Methylobacter capsulatus Y (NRRL B-11,201); assay: Oxidation of n-alkanes to methyl ketones by resting cell suspension; format: cell-based; conditions: cell suspension grown on methane
Description: (§1) The pH of the nutrient medium was adjusted to 7.0 by the addition of acid or base and 50 ml. samples of the nutrient medium were charged into a plurality of 300 ml. shaker flasks. […] The isolates had been maintained on methanol (0.4% V/V) agar plates or on agar plates under an atmosphere of methane and air having a 1:1 V/V gas ratio which had been transferred every two weeks. For growth on methanol, the medium was supplemented with 0.4% methanol. For growth on methane, the gaseous phase of the inoculated flasks was replaced with a gas mixture comprised on methane and air having a ratio of 1:1 on a V/V basis. The inoculated flasks were sealed air-tight and were incubated on a rotary shaker of orbital radius 2.5 cm. at 250 rpm and at 30° C. for two days until turbidity in the medium had developed. The cells were harvested by centrifugation at 10,000×g. at 4° C. for 30 minutes. The cell pellet was washed twice with a 0.05 M phosphate buffer at a pH of 7.0 (containing 0.02 M MgCl2). The washed cells were then suspended in a 0.05 M phosphate buffer at pH 7.0.
(§2) A 0.5 ml. sample of each washed cell suspension (2 mg. cells) was put into 10 ml. vials at 4° C. which were sealed with a rubber cap. The gaseous phase of the vials was removed with vacuum and then was replaced with a gas mixture of the substrate reactant (i.e., alkane or secondary alcohol) and oxygen at a 1:1 V/V ratio. (In the case of a liquid substrate, i.e., secondary alcohol, 10 μl of the substrate was put in the 10 ml. vials). The vials were then incubated at 30° C. on a rotary shaker at 300 rpm. Samples of product (1-3 μl) were withdrawn periodically with a microsyringe and the products were analyzed by gas chromatography (ionization flame detector column).

[5] = system: Methylobacterium organophilum XX; assay: as above; format: cell-based; conditions: cell suspension grown on methane
Description: as §1, §2

[6] = system: Methylocystis parvus OBBP (NRRL B-11,198); assay: as above; format: cell-based; conditions: cell suspension grown on methane
Description: as §1, §2

[7] = system: Methylomonas albus BG8 (NRRL B-11,200); assay: as above; format: cell-based; conditions: cell suspension grown on methane
Description: as §1, §2

[8] = system: Methylomonas methanica SI (NRRL B-11,199); assay: as above; format: cell-based; conditions: cell suspension grown on methane
Description: as §1, §2

[9] = system: Methylosinus sporium 5 (NRRL B-11,197); assay: as above; format: cell-based; conditions: cell suspension grown on methane
Description: as §1, §2

[10] = system: Methylosinus trichosporium OB3b (NRRL B-11,196); assay: as above; format: cell-based; conditions: cell suspension grown on methane
Description: as §1, §2

[11] = system: Methylococcus capsulatus Texas (ATCC 19069); assay: as above; format: cell-based; conditions: cell suspension grown on methane
Description: The pH of the nutrient medium was adjusted to 7.0 by the addition of acid or base and 50 ml. samples of the nutrient medium were charged into a plurality of 300 ml. shaker flasks. The shaker flasks were inoculated with an inoculating loop of cells from an agar plate containing homogeneous colonies of the microorganisms on the plate (the purity of the isolates was confirmed by microscopic examination). The isolates had been maintained on methanol (0.4% V/V) agar plates or on agar plates under an atmosphere of methane and air having a 1:1 V/V gas ratio which had been transferred every two weeks. For growth on methanol, the medium was supplemented with 0.4% methanol. For growth on methane, the gaseous phase of the inoculated flasks was replaced with a gas mixture comprised on methane and air having a ratio of 1:1 on a V/V basis. The inoculated flasks were sealed air-tight and were incubated on a rotary shaker of orbital radius 2.5 cm. at 250 rpm and at 30° C. for two days until turbidity in the medium had developed. The cells were harvested by centrifugation at 10,000×g. at 4° C. for 30 minutes. The cell pellet was washed twice with a 0.05 M phosphate buffer at a pH of 7.0 (containing 0.02 M MgCl2). The washed cells were then suspended in a 0.05 M phosphate buffer at pH 7.0.
as §2, with “The vials were then incubated at 30° C. on a rotary shaker at 300 rpm.” left out

[12] = system: Methylobacter capsulatus (Y, NRRL-B-11,201); assay: Conversion of n-alkanes to secondary alcohols by cell suspensions; format: cell-based; conditions: growth substrate Methane
Source text: (§3) Both cell suspensions (particulate fraction) and cell-free particulate fraction of methane-grown methylotroph microorganisms are capable of catalyzing the conversion of C3 -C6 n-alkanes to the corresponding alcohols including secondary alcohols. The conditions for preparing the cell suspensions or the cell-free particulate fractions from methane-grown methylotroph microorganisms is the same as described above. The cell-free particulate fraction requires the presence of oxygen and NADH as an electron donor. […] Tables XVI and XVII show the conversion of C3 -C6 n-alkanes to the corresponding secondary alcohols using cell suspensions and cell-free particulate fractions, respectively, of methane-grown methylotroph microorganisms.

[13] = system: Methylobacterium sp. (CRL-26, NRRL-B-11,208); assay: as above; format: cell-based; conditions: growth substrate Methane
Source text: as §3

[14] = system: Methylococcus capsulatus (Texas, ATCC 19,069); assay: as above; format: cell-based; conditions: growth substrate Methane
Source text: as §3

[15] = system: Methylomonas sp. (CRL-17, NRRL-B-11,209); assay: as above; format: cell-based; conditions: growth substrate Methane
Source text: as §3

[16] = system: Methylosinus sp. (CRL-15, NRRL-B-11,202); assay: as above; format: cell-based; conditions: growth substrate Methane
Source text: as §3

[17] = system: Methylosinus trichosporium (OB3b, NRRL-B-11,196); assay: as above; format: cell-based; conditions: growth substrate Methane
Source text: as §3

[18] = system: particulate P(40) fraction of Methylobacterium sp. (CRL-26, NRRL-B-11,222); assay: Hydroxylation of n-alkanes to secondary alcohols by particulate P(40) fraction; format: biochemical
Source text: as §3
(§4) ^(a) Particulate P(40) fraction was prepared as follows:
(§5) Cellsuspensions at 4° C. were disintegrated through a French
(§6) Pressure cell and centrifuged at 4000 × g. for 15 min. to remove
(§7) unbroken bacteria. The supernatant solution was then centrifuged at 40,00
(§8) × g. for 30 min. at 4° C. yielding the particulate P(40) and
(§9) soluble S(40) fractions. The products were identified by gas
(§10) chromatography and cochromatography with authentic standard.

[19] = system: particulate P(40) fraction of Methylococcus capsulatus (Texas, ATCC 19,069); assay: as above; format: biochemical
Source text: as §3, §4, §5, §6, §7, §8, §9, §10

[20] = molecular target: particulate P(40) fraction of Methylosinus sp. (CRL-15, NRRL-B-11,202) (Methylosinus trichosporium, UniProt Q50541+Q9KX50+Q9KX51); assay: as above; format: biochemical
particulate P(40) fraction of Methylosinus sp. (CRL-15, NRRL-B-11,202), sequence (Q9KX50 40-431): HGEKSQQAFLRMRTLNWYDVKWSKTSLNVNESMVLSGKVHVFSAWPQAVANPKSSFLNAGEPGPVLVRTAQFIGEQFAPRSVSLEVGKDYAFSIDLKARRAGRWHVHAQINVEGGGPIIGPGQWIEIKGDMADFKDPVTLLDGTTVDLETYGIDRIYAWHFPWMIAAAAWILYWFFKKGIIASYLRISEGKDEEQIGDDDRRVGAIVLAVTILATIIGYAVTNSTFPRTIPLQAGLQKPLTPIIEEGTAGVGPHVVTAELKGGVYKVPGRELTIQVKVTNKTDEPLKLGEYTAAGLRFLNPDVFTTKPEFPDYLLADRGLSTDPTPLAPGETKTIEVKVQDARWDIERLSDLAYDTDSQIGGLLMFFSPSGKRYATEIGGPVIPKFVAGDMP
particulate P(40) fraction of Methylosinus sp. (CRL-15, NRRL-B-11,202), sequence (Q50541 1-252): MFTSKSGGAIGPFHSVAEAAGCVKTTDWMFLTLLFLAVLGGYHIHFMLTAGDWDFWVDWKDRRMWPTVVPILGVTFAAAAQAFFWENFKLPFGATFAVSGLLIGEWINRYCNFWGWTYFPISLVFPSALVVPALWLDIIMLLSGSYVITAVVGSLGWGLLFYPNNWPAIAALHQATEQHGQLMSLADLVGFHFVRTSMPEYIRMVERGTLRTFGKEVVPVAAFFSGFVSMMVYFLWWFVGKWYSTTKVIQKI
particulate P(40) fraction of Methylosinus sp. (CRL-15, NRRL-B-11,202), sequence (Q9KX51 1-256): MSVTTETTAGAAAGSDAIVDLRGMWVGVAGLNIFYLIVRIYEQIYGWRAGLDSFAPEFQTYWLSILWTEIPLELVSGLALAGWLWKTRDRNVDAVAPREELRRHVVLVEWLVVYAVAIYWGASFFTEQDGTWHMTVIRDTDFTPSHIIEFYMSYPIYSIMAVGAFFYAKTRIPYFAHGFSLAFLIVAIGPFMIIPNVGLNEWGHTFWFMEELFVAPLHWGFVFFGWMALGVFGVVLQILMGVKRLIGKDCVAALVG
Source text: as §3, §4, §5, §6, §7, §8, §9, §10

[21] = system: particulate P(40) fraction of Methylosinus trichosporium (OB3b, NRRL-B-11,196); assay: as above; format: biochemical
Source text: as §3, §4, §5, §6, §7, §8, §9, §10

[22] = system: Methylosinus trichosporium OB3b NRRL B-11,196; assay: Conversion of n-alkanes to oxidation products by cell suspensions; format: cell-based; conditions: methane-grown cell suspension, pH 7.0
Description: (§11) ^(a) Cell-suspensions of methanegrown methylotroph microorganisms
(§12) indicated in 0.15 M phosphate buffer, pH 7.0 incubated in the alkanes as
(§13) indicated at 3° C. The oxidation products were determined by g.l.c

[23] = system: Methylococcus capsulatus CRL M1 NRRL B-11,219; assay: as above; format: cell-based; conditions: methane-grown cell suspension, pH 7.0
Description: as §11, §12, §13

NC(=O)c1ccc[n+]([C@@H]2O[C@H](COP(=O)([O-])OP(=O)(O)OC[C@H]3O[C@@H](n4cnc5c(N)ncnc54)[C@H](O)[C@@H]3O)[C@@H](O)[C@H]2O)c1 [NAD, Nicotinamide adenine dinucleotide]
effectiveness as cofactor for oxidation of 2-butanol [1]: required | ability to act as electron acceptor/carrier [2]: required | NAD Consumed ([3]; Experiment 1: 10 min): 270 nmol | NAD Consumed ([3]; Experiment 2: 20 min): 540 nmol

CCC [n-Propane, n-propane]
Conversion Rates, n-alkane to methyl ketone [4]: 1.6 μmoles/hr/mg protein | Conversion Rates, n-alkane to methyl ketone [5]: 2.8 μmoles/hr/mg protein | Conversion Rates, n-alkane to methyl ketone [6]: 1.8 μmoles/hr/mg protein | Conversion Rates, n-alkane to methyl ketone [7]: 2.7 μmoles/hr/mg protein | Conversion Rates, n-alkane to methyl ketone [8]: 2.5 μmoles/hr/mg protein | Conversion Rates, n-alkane to methyl ketone [9]: 2.1 μmoles/hr/mg protein | Conversion Rates, n-alkane to methyl ketone [10]: 1.5 μmoles/hr/mg protein | Conversion Rates, n-alkane to methyl ketone [11]: 1.2 μmoles/hr/mg protein | Conversion Rate, n-alkane to secondary alcohol [12]: 0.20 μmoles/hr/^5 mg. protein | Conversion Rate, n-alkane to secondary alcohol [13]: 1.4 μmoles/hr/^5 mg. protein | Conversion Rate, n-alkane to secondary alcohol [14]: 1.1 μmoles/hr/^5 mg. protein | Conversion Rate, n-alkane to secondary alcohol [15]: 1.6 μmoles/hr/^5 mg. protein | Conversion Rate, n-alkane to secondary alcohol [16]: 2.1 μmoles/hr/^5 mg. protein | Conversion Rate, n-alkane to secondary alcohol [17]: 2.5 μmoles/hr/^5 mg. protein | Conversion Rate, n-alkane to secondary alcohol [18]: 1.0 μmoles/hr/2.0mg. of protein | Conversion Rate, n-alkane to secondary alcohol [19]: 1.2 μmoles/hr/2.0mg. of protein | Conversion Rate, n-alkane to secondary alcohol [20]: 1.5 μmoles/hr/2.0mg. of protein | Conversion Rate, n-alkane to secondary alcohol [21]: 1.32 μmoles/hr/2.0mg. of protein | Conversion Rate to product 1-Propanol [22]: 0.4 μmoles/hr./mg./protein | Conversion Rate to product 2-Propanol [22]: 0.6 μmoles/hr./mg./protein | Conversion Rate to product Acetone [22]: 0.2 μmoles/hr./mg./protein | Conversion Rate to product Propanol [22]: 0.1 μmoles/hr./mg./protein | Conversion Rate to product 1-Propanol [23]: 0.5 μmoles/hr./mg./protein | Conversion Rate to product 2-Propanol [23]: 0.7 μmoles/hr./mg./protein | Conversion Rate to product Acetone [23]: 0.3 μmoles/hr./mg./protein | Conversion Rate to product Propanol [23]: 0.2 μmoles/hr./mg./protein
